Experimental findings from US8129399B2, “Aminopyrimidines useful as kinase inhibitors” (Vertex Pharmaceuticals Incorporated, priority 2005, dated 2012) are described below.

Read-outs that look alike come from different tables or passages of the source.

For assay [1], the system named is Colo205 cells. Description: Colo205 cell proliferation, 3H thymidine incorporation. Conditions: Homo sapiens. Type of assay: cell-based. The procedure:
Colo205 cells were seeded in 96 well plates and serially diluted compound was added to the wells in duplicate. Control groups included untreated cells, the compound diluent (0.1% DMSO alone) and culture medium without cells.
To measure proliferation, 3 h prior to the end of the experiment 0.5 μCi of 3H thymidine was added to each well. Cells were then harvested and the incorporated radioactivity counted on a Wallac microplate beta-counter. Cell viability was assessed using Promega CellTiter 96AQ to measure MTS conversion. Dose response curves were calculated using either Prism 3.0 (GraphPad) or SoftMax Pro 4.3.1 LS (Molecular Devices) software.
On the technique in general: Incorporation of labelled thymidine or its analogues reports DNA synthesis.

The target of assay [2] is T1, JAK3 (Homo sapiens, UniProt P52333).
T1 sequence (P52333 1-1124): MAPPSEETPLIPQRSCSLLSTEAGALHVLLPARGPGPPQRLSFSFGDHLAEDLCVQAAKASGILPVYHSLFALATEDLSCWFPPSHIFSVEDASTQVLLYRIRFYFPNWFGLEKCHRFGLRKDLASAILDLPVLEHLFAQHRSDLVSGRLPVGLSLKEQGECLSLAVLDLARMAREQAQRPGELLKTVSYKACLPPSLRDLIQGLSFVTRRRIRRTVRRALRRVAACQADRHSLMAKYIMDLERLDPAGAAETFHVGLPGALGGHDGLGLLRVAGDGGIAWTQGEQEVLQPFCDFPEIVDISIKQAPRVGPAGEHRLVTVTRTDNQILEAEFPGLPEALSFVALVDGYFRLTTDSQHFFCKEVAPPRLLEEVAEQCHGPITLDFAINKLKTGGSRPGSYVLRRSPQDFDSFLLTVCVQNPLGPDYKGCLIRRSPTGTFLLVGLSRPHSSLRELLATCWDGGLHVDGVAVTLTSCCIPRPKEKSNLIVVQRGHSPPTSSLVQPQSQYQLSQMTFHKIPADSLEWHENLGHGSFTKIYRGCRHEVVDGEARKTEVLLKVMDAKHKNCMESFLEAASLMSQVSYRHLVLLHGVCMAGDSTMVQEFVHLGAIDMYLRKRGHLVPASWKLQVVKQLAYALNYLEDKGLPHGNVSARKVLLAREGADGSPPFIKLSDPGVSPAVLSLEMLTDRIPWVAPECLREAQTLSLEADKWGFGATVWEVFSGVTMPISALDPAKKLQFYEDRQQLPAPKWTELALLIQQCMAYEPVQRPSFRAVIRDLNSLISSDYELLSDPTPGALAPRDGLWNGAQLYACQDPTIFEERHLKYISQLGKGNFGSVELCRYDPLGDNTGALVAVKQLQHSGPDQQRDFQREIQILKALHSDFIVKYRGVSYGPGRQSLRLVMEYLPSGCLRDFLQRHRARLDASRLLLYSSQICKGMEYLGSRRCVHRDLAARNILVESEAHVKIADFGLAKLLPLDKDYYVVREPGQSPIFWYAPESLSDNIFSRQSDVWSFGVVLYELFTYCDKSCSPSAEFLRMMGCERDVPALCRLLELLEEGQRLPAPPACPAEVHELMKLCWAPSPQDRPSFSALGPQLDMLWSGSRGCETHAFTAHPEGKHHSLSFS
Description: JAK3 inhibition assay. Type of assay: biochemical. On the procedure: Reactions were carried out in a kinase buffer containing 100 mM HEPES (pH 7.4), 1 mM DTT, 10 mM MgCl2, 25 mM NaCl, and 0.01% BSA. Substrate concentrations in the assay were 5 μM ATP (200 uCi/μmole ATP) and 1 μM poly(Glu)4Tyr. Reactions were carried out at 25° C. and 1 nM JAK3.
To each well of a 96 well polycarbonate plate was added 1.5 μl of a candidate JAK3 inhibitor along with 50 μl of kinase buffer containing 2 μM poly(Glu)4Tyr and 10 μM ATP. This was then mixed and 50 μl of kinase buffer containing 2 nM JAK3 enzyme was added to start the reaction. After 20 minutes at room temperature (25 C), the reaction was stopped with 50 μl of 20% trichloroacetic acid (TCA) that also contains 0.4 mM ATP. The entire contents of each well were then transferred to a 96 well glass fiber filter plate using a TomTek Cell Harvester. After washing, 60 μl of scintillation fluid was added and ^33P incorporation detected on a Perkin Elmer TopCount.

Assay [3] deals with T2, Aurora-2 (Aurora A) (Homo sapiens, UniProt O14965).
T2 sequence (O14965 1-403): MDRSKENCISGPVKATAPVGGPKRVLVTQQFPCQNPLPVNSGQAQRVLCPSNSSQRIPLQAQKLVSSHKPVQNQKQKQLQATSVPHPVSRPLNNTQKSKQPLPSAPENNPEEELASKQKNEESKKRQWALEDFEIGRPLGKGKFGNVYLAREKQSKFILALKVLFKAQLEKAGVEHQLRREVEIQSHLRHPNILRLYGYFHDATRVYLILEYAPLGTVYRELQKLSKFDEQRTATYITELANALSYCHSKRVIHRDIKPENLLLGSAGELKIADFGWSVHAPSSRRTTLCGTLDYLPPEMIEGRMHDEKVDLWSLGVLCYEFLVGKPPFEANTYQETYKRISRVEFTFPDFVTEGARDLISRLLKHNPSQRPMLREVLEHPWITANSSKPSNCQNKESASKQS
Description: Aurora-2 (Aurora A) inhibition assay, coupled enzyme. In kind it is biochemical. The procedure:
Assays were carried out in a mixture of 100 mM Hepes (pH7.5), 10 mM MgCl2, 1 mM DTT, 25 mM NaCl, 2.5 mM phosphoenolpyruvate, 300 μM NADH, 30 μg/ml pyruvate kinase and 10 μg/ml lactate dehydrogenase. […] Assays were carried out at 30° C. and in the presence of 40 nM Aurora-2.
An assay stock buffer solution was prepared containing all of the reagents listed above, with the exception of Aurora-2 and the test compound of interest. […] The plate was preincubated for 10 minutes at 30° C. and the reaction initiated by addition of 10 μl of Aurora-2. Initial reaction rates were determined with a Molecular Devices SpectraMax Plus plate reader over a 10 minute time course. IC50 and Ki data were calculated from non-linear regression analysis using the Prism software package (GraphPad Prism version 3.0cx for Macintosh, GraphPad Software, San Diego Calif., USA).

Where [4] appears, read: COLO 205, read-out: Colo205 inh 3H-Thy incorporation after 96 hours IC50 (uM).
[5] abbreviates: COLO 205, read-out: Colo205 inh 3H-Thy incorporation after 72 hours IC50 (uM).
The mark [6] stands for this setting: 400 μM ATP, 40 nM Aurora-2, read-out: Aurora A Ki.

Regarding `CCC(=O)Nc1ccc(Sc2nc(Nc3cc(C)n[nH]3)cc(N3CC(O)(C(C)CC)C3)n2)cc1` (centres unmarked) [Compound I-6], the IC50 in assay [1] (setting [4]) came to 0.024 µM. The inhibitory constant (Ki) in assay [2] came to 0.19 µM; in assay [3], 0.00077 µM.
Take `Cc1cc(Nc2cc(N3CC(F)(C4CC4)C3)nc(Sc3ccc(NC(=O)CC4CC4)cc3)n2)[nH]n1` [Compound I-19]: in assay [1] (setting [5]), the IC50 was found to be 0.05 µM. Further, the inhibition constant Ki amounted to 0.62 µM in assay [2] and 0.00044 µM in assay [3].
Regarding `O=C(Nc1ccc(Sc2nc(Nc3cc(C4CC4)[nH]n3)cc(N3CC(O)(C4CC4)C3)n2)cc1)C1CC1` [Compound I-10], in assay [1] (setting [4]), the IC50 was 0.042 µM. The inhibition constant Ki came to 0.051 µM in assay [2] and 0.00042 µM in assay [3].
As to `CCC(=O)Nc1ccc(Sc2nc(Nc3cc(C)n[nH]3)cc(N3CC(O)(C4CCCC4)C3)n2)cc1` [Compound I-3], the IC50 in assay [1] (setting [5]) worked out at 0.002 µM; in assay [1] (setting [4]), 0.004 µM. The values for the Ki in assay [2] and in assay [3] (setting [6]) were 0.15 µM and 0.00067 µM, respectively.
Regarding `Cc1cc(Nc2cc(N3CC(F)(C4CC4)C3)nc(Sc3ccc(NC(=O)C4CC4(F)F)cc3)n2)[nH]n1` (centres unmarked) [Compound I-20], the IC50 in assay [1] (setting [5]) came out at 0.012 µM. The inhibitory constant (Ki) worked out at 0.11 µM in assay [2] and 0.00077 µM in assay [3] (setting [6]).
For the compound `Cc1cc(Nc2cc(N3CC(F)(C4CC4)C3)nc(Sc3ccc(NC(=O)CC(F)(F)F)cc3)n2)[nH]n1` [Compound I-14, N-(4-(4-(3-methyl-1H-pyrazol-5-ylamino)-6-(3-cyclopropyl-3-fluoroazetidin-1-yl)pyrimidin-2-ylthio)phenyl)-3,3,3-trifluoropropanamide], the IC50 in assay [1] (setting [5]) and in assay [1] (setting [4]) was 0.006 µM in each case. The Ki in assay [2] was 0.077 µM; in assay [3] (setting [6]), 0.00035 µM.
`Cc1cc(Nc2cc(N3CC(F)(C4CC4)C3)nc(Sc3ccc(NC(=O)C4CC4)cc3F)n2)n[nH]1` [Compound I-18]: the IC50 in assay [1] (setting [5]) amounted to 0.027 µM. For the same compound, the inhibition constant (Ki) is 0.22 µM in assay [2] and 0.00035 µM in assay [3].
With `Cc1cc(Nc2cc(N3CC(O)(C4CC4)C3)nc(Sc3ccc(NC(=O)C4CCCC4)cc3)n2)[nH]n1` [Compound I-9, N-(4-((4-(3-methyl-1H-pyrazol-5-ylamino)-6-(3-cyclopropyl-3-hydroxyazetidin-1-yl)pyrimidin-2-yl)sulfanyl)phenyl)cyclopentanecarboxamide], in assay [1] (setting [4]), the IC50 is 0.016 µM. The Ki was 0.15 µM in assay [2] and 0.00043 µM in assay [3] (setting [6]).
With `Cc1cc(Nc2cc(N3CC(O)(C4CC4)C3)nc(Sc3ccc(NC(=O)C4CC4(F)F)cc3)n2)[nH]n1` (centres unmarked) [Compound I-12], the IC50 in assay [1] (setting [5]) was determined as 0.019 µM. The inhibition constant Ki in assay [2] is 0.028 µM; in assay [3] (setting [6]) it was 0.00035 µM.
As to `CCC(=O)Nc1ccc(Sc2nc(Nc3cc(C)n[nH]3)cc(N3CC(O)(C4CC4)C3)n2)cc1` [Compound I-2], the IC50 in assay [1] (setting [5]) and in assay [1] (setting [4]) was 0.026 µM throughout. The Ki stood at 0.16 µM in assay [2] and 0.00039 µM in assay [3] (setting [6]).
For `Cc1cc(Nc2cc(N3CC(O)(C4CC4)C3)nc(Sc3ccc(NC(=O)C4CC4)cc3F)n2)[nH]n1` [Compound I-11, N-(4-((4-(3-methyl-1H-pyrazol-5-ylamino)-6-(3-cyclopropyl-3-hydroxyazetidin-1-yl)pyrimidin-2-yl)sulfanyl)-3-fluorophenyl)cyclopropanecarboxamide], the IC50 in assay [1] (setting [4]) was 0.028 µM. In addition, the Ki worked out at 0.056 µM in assay [2] and 0.00041 µM in assay [3] (setting [6]).
For `Cc1cc(Nc2cc(N3CC(F)(C4CC4)C3)nc(Sc3ccc(NC(=O)CC(F)(F)F)nc3)n2)[nH]n1` [Compound I-21, N-(5-(4-(3-methyl-1H-pyrazol-5-ylamino)-6-(3-cyclopropyl-3-fluoroazetidin-1-yl)pyrimidin-2-ylthio)pyridin-2-yl)-3,3,3-trifluoropropanamide], the IC50 in assay [1] (setting [5]) stood at 0.02 µM. For the same compound, the Ki amounted to 0.1 µM in assay [2] and 0.00044 µM in assay [3].
With `CCC(=O)Nc1ccc(Sc2nc(Nc3cc(C)n[nH]3)cc(N3CC(O)(C(C)C)C3)n2)cc1` [Compound I-5], the IC50 in assay [1] (setting [4]) was found to be 0.033 µM. The results for the Ki in assay [2] and in assay [3] (setting [6]) were 0.1 µM and 0.0012 µM, respectively.
As for `CCC(=O)Nc1ccc(Sc2nc(Nc3cc(C4CC4)[nH]n3)cc(N3CC(O)(C4CC4)C3)n2)cc1` [Compound I-7], the IC50 in assay [1] (setting [4]) came to 0.022 µM. Also, the Ki turned out to be 0.037 µM in assay [2] and 0.00036 µM in assay [3].
`Cc1cc(Nc2cc(N3CC(O)(C4CC4)C3)nc(Sc3ccc(NC(=O)C4CC4)cc3)n2)n[nH]1` [Compound I-8]: the IC50 in assay [1] (setting [5]) came out at 0.04 µM; in assay [1] (setting [4]) it was 0.033 µM. Moreover, the values for the inhibition constant Ki in assay [2] and in assay [3] (setting [6]) were 0.14 µM and 0.00087 µM, respectively.
Take `Cc1cc(Nc2cc(N3CC(F)(C4CC4)C3)nc(Sc3ccc(NC(=O)C4CC4)cc3)n2)n[nH]1` [Compound I-13]: the IC50 in assay [1] (setting [5]) came to 0.072 µM; in assay [1] (setting [4]) it was 0.039 µM. Besides, the Ki amounted to 0.29 µM in assay [2] and 0.0011 µM in assay [3] (setting [6]).

By Ki is commonly meant the dissociation constant of the complex between target and ligand, obtained from inhibition or displacement.
